Measured values reported in article PMC7041978 (The Journal of Veterinary Medical Science, 2020).
“Also recorded” adds a separate entry of the source.

How the values were obtained:
[1] = system: human foreskin fibroblasts (HFF); assay: Host cell cytotoxicity assay; format: cell-based; settings: for Host cell inhibition (%): 10 µM compounds, HFF cells, 48 hr; for IC50: Homo sapiens, HFF, 48 h, read-out: IC50 for host cell
[2] = system: Toxoplasma gondii RH-2F strain; assay: Parasite growth assay; format: cell-based; settings: for IC50 / inhibition at 10 µM: Toxoplasma gondii, 48 h; for IC50: read-out: IC50 for parasite growth; for inhibition at 10 µM: HFF, read-out: Parasite inhibition (%)
[3] = system: Toxoplasma gondii RH-2F intracellular tachyzoites; assay: Intracellular parasite growth assay; format: cell-based; settings: added after 2-hr invasion, 48 hr
[4] = system: Toxoplasma gondii; settings: cited from earlier work

Molecule | Host cell inhibition (%) [1] [%] | IC50 [1] [µM] | IC50 [2] [µM] | inhibition at 10 µM [2] [%] | Inhibition of intracellular parasite growth ([3]; 10 µM) | other results
CC(C)=CC[C@H](O)C1=CC(=O)c2c(O)ccc(O)c2C1=O [Alkannin] | −0.3 | 5.4 | 1.3 | 86.9 |  | Host cell inhibition (%) ([1]; listed as alkannin): did not kill the host cells
O=c1cc(-c2ccccc2)oc2cc(O)c(O)c(O)c12 [Baicalein] | 3.3 | > 50 | 5 | 80.1 | effectively inhibited the intracellular parasite growth | Host cell inhibition (%) ([1]; listed as baicalein): did not kill the host cells; Inhibition of intracellular parasite growth ([3]; 10 µM, listed as baicalein): effectively inhibited intracellular parasite growth
COc1ccc2cc3[n+](cc2c1OC)CCc1cc2c(cc1-3)OCO2 [Berberine Chloride] | −3.0 | 2.8 | 2.2 | 85.5 |  | Host cell inhibition (%) ([1]; listed as berberine chloride): did not kill the host cells
c1c2c(cc3c1OCO3)-c1cc3ccc4c(c3c[n+]1CC2)OCO4 [Coptisine Chloride] | 6.4 | > 50 | 2.1 | 73.3 |  | Host cell inhibition (%) ([1]; listed as coptisine chloride): did not kill the host cells; Dose dependence of parasite growth inhibition ([2]; high concentrations, data not shown): did not inhibit parasite growth in a dose-dependent manner
O=c1cc(-c2ccc(O)c(O)c2)oc2cc(O)cc(O)c12 [Luteolin] |  | > 50 | 5.7 | 74.3 | effectively inhibited the intracellular parasite growth | 
CCc1nc(N)nc(N)c1-c1ccc(Cl)cc1 [Pyrimethamine, reference compound] |  |  |  |  | inhibited the intracellular growth | Selectivity indexes (SI) [4]: 0.21
CC(C)=CC[C@@H](O)C1=CC(=O)c2c(O)ccc(O)c2C1=O [Shikonin] | 43.4 | 17.8 | 1.4 | 87.3 |  | Host cell inhibition (%) ([1]; listed as shikonin): did not kill the host cells; also recorded: killed some of the host cells
C[C@H]1CC[C@@]2(OC1)O[C@H]1C[C@H]3[C@@H]4CC[C@@H]5C[C@@H](O[C@@H]6O[C@H](CO)[C@H](O)[C@H](O)[C@H]6O[C@@H]6O[C@H](CO)[C@@H](O)[C@H](O)[C@H]6O)CC[C@]5(C)[C@H]4CC[C@]3(C)[C@H]1[C@@H]2C [Timosaponin A-III] | 98.3 |  |  | 81.4 |  | Host cell inhibition (%) ([1]; listed as timosaponin A-III): killed almost all of the host cells
Nc1ccc(S(=O)(=O)Nc2ncccn2)cc1 [sulphadiazine] |  |  |  |  |  | Selectivity indexes (SI) [4]: 0.29
dextran sulfate [reference compound] |  |  |  |  |  | Inhibition of intracellular parasite growth ([3]; 25 mg/ml): hardly affected the intracellular parasites
